According to the supplement of paper PMC10307832:

Tests used:
Test in all cases: relative viability (nuclei count vs DMSO), 5 days (fraction); higher = more cells survive
[1] = compound: C[C@H]([C@@H](C(=O)N)NC(=O)[C@@H]1CSSC[C@@H](C(=O)N[C@H](C(=O)N[C@@H](C(=O)N[C@H](C(=O)N1)CCCCN)CC2=CNC3=CC=CC=C32)CC4=CC=C(C=C4)O)NC(=O)[C@@H](CC5=CC=CC=C5)N)O [CAP-232] + Nc1nc2[nH]cc(CCc3ccc(C(=O)N[C@@H](CCC(=O)O)C(=O)O)cc3)c2c(=O)[nH]1 [Pemetrexed] (partner 0.2 µM)
How it was run: (§1)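 Relative viability divides the nuclei count in treated wells by that in vehicle wells. Lung cancer cell lines were seeded in 1536-well plates, dosed by pin tool the next day, and fixed and stained after 5 days in one step with final 0.05% Triton X-100, 1% formaldehyde and 1 ug/ml Hoechst. Dosing was a single drug or a fixed anchor-drug dose plus five library-drug doses (not always all listed) in √10 steps, and values are medians of duplicate plates imaged at 4×.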

[2] = compound: C[C@H]([C@@H](C(=O)N)NC(=O)[C@@H]1CSSC[C@@H](C(=O)N[C@H](C(=O)N[C@@H](C(=O)N[C@H](C(=O)N1)CCCCN)CC2=CNC3=CC=CC=C32)CC4=CC=C(C=C4)O)NC(=O)[C@@H](CC5=CC=CC=C5)N)O [CAP-232] + CC(C)C[C@H](NC(=O)[C@H](Cc1ccccc1)NC(=O)c1cnccn1)B(O)O [Bortezomib] (partner 0.002 µM)
How it was run: as §1

[3] = compound: C[C@H]([C@@H](C(=O)N)NC(=O)[C@@H]1CSSC[C@@H](C(=O)N[C@H](C(=O)N[C@@H](C(=O)N[C@H](C(=O)N1)CCCCN)CC2=CNC3=CC=CC=C32)CC4=CC=C(C=C4)O)NC(=O)[C@@H](CC5=CC=CC=C5)N)O [CAP-232] + N=C(N)NC(=N)NCCc1ccccc1 [Phenformin] (partner 250 µM)
How it was run: as §1

[4] = compound: C[C@H]([C@@H](C(=O)N)NC(=O)[C@@H]1CSSC[C@@H](C(=O)N[C@H](C(=O)N[C@@H](C(=O)N[C@H](C(=O)N1)CCCCN)CC2=CNC3=CC=CC=C32)CC4=CC=C(C=C4)O)NC(=O)[C@@H](CC5=CC=CC=C5)N)O [CAP-232] + Cc1cc(Nc2cc(N3CCN(C)CC3)nc(Sc3ccc(NC(=O)C4CC4)cc3)n2)n[nH]1 [Tozasertib] (partner 0.1 µM)
How it was run: as §1

[5] = compound: C[C@H]([C@@H](C(=O)N)NC(=O)[C@@H]1CSSC[C@@H](C(=O)N[C@H](C(=O)N[C@@H](C(=O)N[C@H](C(=O)N1)CCCCN)CC2=CNC3=CC=CC=C32)CC4=CC=C(C=C4)O)NC(=O)[C@@H](CC5=CC=CC=C5)N)O [CAP-232] + C[C@]1(O)C[C@@H](c2nc(-c3ccc4ccc(-c5ccccc5)nc4c3)c3c(N)nccn32)C1 [Linsitinib] (partner 1 µM)
How it was run: as §1

LCLC-97TM1
relative viability ([1]; first compound 0.4 µM): 0.192
relative viability ([1]; first compound 1.265 µM): 0.16
relative viability ([1]; first compound 4 µM): 0.167
relative viability ([1]; first compound 12.65 µM): 0.183
relative viability ([2]; first compound 0.4 µM): 0.83
relative viability ([2]; first compound 1.265 µM): 0.765
relative viability ([2]; first compound 4 µM): 0.856
relative viability ([2]; first compound 12.65 µM): 0.555
relative viability ([3]; first compound 0.4 µM): 0.462
relative viability ([3]; first compound 1.265 µM): 0.387
relative viability ([3]; first compound 4 µM): 0.463
relative viability ([3]; first compound 12.65 µM): 0.422
relative viability ([4]; first compound 0.4 µM): 0.22
relative viability ([4]; first compound 1.265 µM): 0.189
relative viability ([4]; first compound 4 µM): 0.204
relative viability ([4]; first compound 12.65 µM): 0.194
relative viability ([5]; first compound 0.4 µM): 0.148
relative viability ([5]; first compound 1.265 µM): 0.21
relative viability ([5]; first compound 4 µM): 0.218
relative viability ([5]; first compound 12.65 µM): 0.18

NCI-H2170
relative viability ([1]; first compound 0.4 µM): 0.247
relative viability ([1]; first compound 1.265 µM): 0.261
relative viability ([1]; first compound 4 µM): 0.267
relative viability ([1]; first compound 12.65 µM): 0.244
relative viability ([3]; first compound 0.4 µM): 0.409
relative viability ([3]; first compound 1.265 µM): 0.422
relative viability ([3]; first compound 4 µM): 0.438
relative viability ([3]; first compound 12.65 µM): 0.42
relative viability ([4]; first compound 0.4 µM): 0.852
relative viability ([4]; first compound 1.265 µM): 0.667
relative viability ([4]; first compound 4 µM): 0.615
relative viability ([4]; first compound 12.65 µM): 0.73

NCI-H1993
relative viability ([1]; first compound 0.4 µM): 0.602
relative viability ([1]; first compound 1.265 µM): 0.533
relative viability ([1]; first compound 4 µM): 0.553
relative viability ([1]; first compound 12.65 µM): 0.586
relative viability ([2]; first compound 0.4 µM): 1.26
relative viability ([2]; first compound 1.265 µM): 1.07
relative viability ([2]; first compound 4 µM): 0.966
relative viability ([2]; first compound 12.65 µM): 0.896
relative viability ([3]; first compound 0.4 µM): 0.497
relative viability ([3]; first compound 1.265 µM): 0.541
relative viability ([3]; first compound 4 µM): 0.545
relative viability ([3]; first compound 12.65 µM): 0.564
relative viability ([4]; first compound 0.4 µM): 0.621
relative viability ([4]; first compound 1.265 µM): 0.569
relative viability ([4]; first compound 4 µM): 0.664
relative viability ([4]; first compound 12.65 µM): 0.582
relative viability ([5]; first compound 0.4 µM): 0.778
relative viability ([5]; first compound 1.265 µM): 0.758
relative viability ([5]; first compound 4 µM): 0.788
relative viability ([5]; first compound 12.65 µM): 0.7

ABC-1
relative viability ([2]; first compound 0.4 µM): 0.296
relative viability ([2]; first compound 1.265 µM): 0.306
relative viability ([2]; first compound 4 µM): 0.222
relative viability ([2]; first compound 12.65 µM): 0.264
relative viability ([3]; first compound 0.4 µM): 0.249
relative viability ([3]; first compound 1.265 µM): 0.243
relative viability ([3]; first compound 4 µM): 0.215
relative viability ([3]; first compound 12.65 µM): 0.186
relative viability ([4]; first compound 0.4 µM): 0.155
relative viability ([4]; first compound 1.265 µM): 0.143
relative viability ([4]; first compound 4 µM): 0.179
relative viability ([4]; first compound 12.65 µM): 0.148
relative viability ([5]; first compound 0.4 µM): 1.07
relative viability ([5]; first compound 1.265 µM): 0.781
relative viability ([5]; first compound 4 µM): 0.726
relative viability ([5]; first compound 12.65 µM): 0.427
